Assay results as given in patent publication US20250074966A1, “AGENTS AND METHODS FOR PREVENTING OR INHIBITING ADAPTIVE IMMUNE RESPONSES ASSOCIATED WITH MULTIPLE SCLEROSIS” (Adaptive Biotechnologies Corporation, priority 2023, published 2025).

System: ZO-1
Assay: Primary human T cells transfected with TCRs co-cultured overnight with HLA-DRB1*15:01 positive K562 target cells expressing antigen-encoding constructs, T cell activation via CD137 expression
Assay type: cell-based
Conditions: antigen-encoding construct delivered as IVT RNA to K562 cells

## MEETAIWEQHTVTLHRA [ZO-1]
  processing and presentation of the antigen by HLA-DRB1*15:01 positive target cells: processed and presented
